Measurements reported in the NIST ThermoML archive (doi:10.1021/acs.jced.8b00132).
Several values for one entry are separate records, joined by “and”; a condition that tells them apart may be missing. Equal values may be shown once. ± gives the expanded uncertainty stated by the source.

Settings: transient hot wire

O=C(C(F)(F)C(F)(F)F)C(F)(C(F)(F)F)C(F)(F)F [dodecafluoro-2-methylpentan-3-one]
Settings	thermal conductivity
417.43 K, 35735 kPa, Liquid	0.06006 ± 0.0012 W/m/K
417.44 K, 35746 kPa, Liquid	0.06008 ± 0.0012 W/m/K
417.45 K, 995 kPa, Gas	0.022 ± 0.0014 W/m/K
417.46 K, 24856 kPa, Liquid	0.05553 ± 0.0011 W/m/K
417.46 K, 24868 kPa, Liquid	0.05553 ± 0.0011 W/m/K
417.48 K, 3782 kPa, Liquid	0.04235 ± 0.00089 W/m/K
417.49 K, 3785 kPa, Liquid	0.04236 ± 0.00089 W/m/K
417.5 K, 788 kPa, Gas	0.02105 ± 0.0013 W/m/K and 0.02104 ± 0.0013 W/m/K
417.52 K, 10593 kPa, Liquid	0.04792 ± 0.001 W/m/K
417.52 K, 10594 kPa, Liquid	0.04785 ± 0.001 W/m/K
417.53 K, 2204 kPa, Liquid	0.04067 ± 0.00085 W/m/K
417.53 K, 2206 kPa, Liquid	0.04059 ± 0.00085 W/m/K
417.56 K, 372 kPa, Gas	0.02094 ± 0.0013 W/m/K
417.59 K, 16285 kPa, Liquid	0.05128 ± 0.0011 W/m/K
417.59 K, 35671 kPa, Liquid	0.06014 ± 0.0012 W/m/K
417.59 K, 35701 kPa, Liquid	0.06019 ± 0.0012 W/m/K
417.6 K, 591 kPa, Gas	0.02077 ± 0.0013 W/m/K
417.6 K, 1024 kPa, Gas	0.0225 ± 0.00075 W/m/K
417.6 K, 16284 kPa, Liquid	0.05126 ± 0.0011 W/m/K
417.61 K, 594 kPa, Gas	0.02078 ± 0.0013 W/m/K
417.61 K, 6424 kPa, Liquid	0.04484 ± 0.00094 W/m/K
417.62 K, 6421 kPa, Liquid	0.0448 ± 0.00094 W/m/K
417.65 K, 994 kPa, Gas	0.02218 ± 0.0014 W/m/K
417.66 K, 995 kPa, Gas	0.02218 ± 0.0014 W/m/K
417.68 K, 785 kPa, Gas	0.02107 ± 0.0013 W/m/K
417.7 K, 788 kPa, Gas	0.02117 ± 0.0013 W/m/K
417.7 K, 3782 kPa, Liquid	0.04218 ± 0.00088 W/m/K and 0.04238 ± 0.00089 W/m/K
417.71 K, 10585 kPa, Liquid	0.04785 ± 0.001 W/m/K
417.73 K, 10592 kPa, Liquid	0.04786 ± 0.001 W/m/K
417.76 K, 371 kPa, Gas	0.02099 ± 0.0013 W/m/K
417.76 K, 372 kPa, Gas	0.0209 ± 0.0013 W/m/K
417.82 K, 589 kPa, Gas	0.02086 ± 0.0013 W/m/K
417.82 K, 6421 kPa, Liquid	0.0448 ± 0.00094 W/m/K
417.84 K, 994 kPa, Gas	0.02265 ± 0.0014 W/m/K
417.84 K, 6421 kPa, Liquid	0.04481 ± 0.00094 W/m/K
417.85 K, 994 kPa, Gas	0.02241 ± 0.0014 W/m/K
417.88 K, 785 kPa, Gas	0.02124 ± 0.0013 W/m/K
417.93 K, 3782 kPa, Liquid	0.04241 ± 0.00089 W/m/K
417.93 K, 3784 kPa, Liquid	0.04244 ± 0.00089 W/m/K
417.95 K, 369 kPa, Gas	0.02101 ± 0.0013 W/m/K
417.95 K, 370 kPa, Gas	0.02093 ± 0.0013 W/m/K
418.05 K, 588 kPa, Gas	0.02096 ± 0.0013 W/m/K
418.08 K, 784 kPa, Gas	0.02089 ± 0.0013 W/m/K
418.16 K, 367 kPa, Gas	0.02097 ± 0.0013 W/m/K
418.16 K, 369 kPa, Gas	0.02096 ± 0.0013 W/m/K
418.29 K, 587 kPa, Gas	0.02094 ± 0.0013 W/m/K
418.3 K, 587 kPa, Gas	0.02092 ± 0.0013 W/m/K
418.46 K, 367 kPa, Gas	0.02103 ± 0.0013 W/m/K
418.47 K, 366 kPa, Gas	0.02102 ± 0.0013 W/m/K
432.13 K, 1545 kPa, Gas	0.02726 ± 0.0017 W/m/K
432.18 K, 1546 kPa, Gas	0.02748 ± 0.0017 W/m/K
432.2 K, 1545 kPa, Gas	0.02732 ± 0.0017 W/m/K
432.24 K, 1546 kPa, Gas	0.02788 ± 0.0018 W/m/K
432.25 K, 1546 kPa, Gas	0.02765 ± 0.0018 W/m/K
432.26 K, 1546 kPa, Gas	0.0279 ± 0.0018 W/m/K
432.38 K, 2634 kPa, Liquid	0.03887 ± 0.00082 W/m/K
432.38 K, 2635 kPa, Liquid	0.0388 ± 0.00082 W/m/K
432.42 K, 1424 kPa, Gas	0.02465 ± 0.0015 W/m/K
432.43 K, 1423 kPa, Gas	0.02466 ± 0.0015 W/m/K
432.46 K, 1706 kPa, Liquid	0.03696 ± 0.00079 W/m/K
432.46 K, 1978 kPa, Liquid	0.03766 ± 0.0008 W/m/K
432.47 K, 1706 kPa, Liquid	0.03707 ± 0.00079 W/m/K
432.47 K, 1710 kPa, Liquid	0.03705 ± 0.00079 W/m/K
432.47 K, 1979 kPa, Liquid	0.03775 ± 0.0008 W/m/K
432.52 K, 1423 kPa, Gas	0.0248 ± 0.0015 W/m/K
432.52 K, 2633 kPa, Liquid	0.03885 ± 0.00082 W/m/K
432.53 K, 1423 kPa, Gas	0.02469 ± 0.0015 W/m/K
432.53 K, 2633 kPa, Liquid	0.03887 ± 0.00082 W/m/K
432.54 K, 1420 kPa, Gas	0.02444 ± 0.0015 W/m/K
432.55 K, 1420 kPa, Gas	0.0244 ± 0.0015 W/m/K
432.56 K, 1978 kPa, Liquid	0.03769 ± 0.00079 W/m/K
432.57 K, 1705 kPa, Liquid	0.03737 ± 0.00079 W/m/K and 0.03712 ± 0.00079 W/m/K
432.57 K, 1979 kPa, Liquid	0.0379 ± 0.0008 W/m/K
432.62 K, 1709 kPa, Liquid	0.03738 ± 0.00079 W/m/K
432.63 K, 1422 kPa, Gas	0.02518 ± 0.0016 W/m/K
432.63 K, 1709 kPa, Liquid	0.0377 ± 0.0008 W/m/K
432.65 K, 1419 kPa, Gas	0.02476 ± 0.0015 W/m/K and 0.02477 ± 0.0015 W/m/K
432.67 K, 1705 kPa, Liquid	0.03805 ± 0.00081 W/m/K
432.68 K, 1705 kPa, Liquid	0.0373 ± 0.00079 W/m/K
432.68 K, 1977 kPa, Liquid	0.03782 ± 0.0008 W/m/K
432.68 K, 1978 kPa, Liquid	0.03794 ± 0.0008 W/m/K
432.68 K, 2631 kPa, Liquid	0.03893 ± 0.00082 W/m/K
432.68 K, 2632 kPa, Liquid	0.03891 ± 0.00082 W/m/K
432.69 K, 3940 kPa, Liquid	0.04069 ± 0.00085 W/m/K and 0.04067 ± 0.00085 W/m/K
